Where two headings read alike, the source gives them in different places.
Legend:
[1] = test system: pseudoviruses carrying diverse coronavirus S proteins; assay type: cell-based
[2] = test system: Calu-3 cells; assay: Analysis of cell viability (CellTiter-Glo); assay type: cell-based, human; conditions: 24 h, Supplementary Fig. S6
Protocol: Cells incubated with a medium containing DMSO (solvent) served as controls. Cell viability was assessed using the CellTiter-Glo® Luminescent Cell Viability Assay (Promega) according to the manufacturer’s instructions. Data normalization was performed as follows: cell viability in the absence of inhibitor (DMSO-only samples) was set as 100% and the relative viability of cells incubated with the respective inhibitor concentrations was calculated.

[3] = biological target: T1, Recombinant Human TMPRSS2 (Homo sapiens, UniProt O15393); assay: TMPRSS2 biochemical assay with pre-incubation of inhibitor and enzyme; conditions: for inhibition at 2.788 pM: concentration 0.00278767 nM; for inhibition at 8.363 pM: concentration 0.00836301 nM; for inhibition at 25.09 pM: concentration 0.025089 nM; for inhibition at 75.27 pM: concentration 0.0752671 nM; for inhibition at 0.000225801 µM: concentration 0.225801 nM; for inhibition at 0.000677404 µM: concentration 0.677404 nM; for inhibition at 0.00203221 µM: concentration 2.03221 nM; for inhibition at 0.00609663 µM: concentration 6.09663 nM; for inhibition at 0.0182899 µM: concentration 18.2899 nM; for inhibition at 0.0548697 µM: concentration 54.8697 nM; for inhibition at 0.164609 µM: concentration 164.609 nM; for inhibition at 0.493827 µM: concentration 493.827 nM; for inhibition at 1.48148 µM: concentration 1481.48 nM; for inhibition at 4.44444 µM: concentration 4444.44 nM; for inhibition at 13.3333 µM: concentration 13333.3 nM; for inhibition at 40 µM: concentration 40000 nM
T1 construct: human TMPRSS2 residues 106492, N-terminal 6x His-tag; 6x His-tag (N); purchased Cusabio CSB-YP023924HU; host or cells: yeast
Protocol: To that was dispensed TMPRSS2 (5 µl, 0.018 mg/ml) in assay buffer (50 mM Tris pH 8, 150 mM NaCl, 0.01% Tween20) using a BioRAPTR (Beckman Coulter) to give a total reaction volume of 5 µl. […] The final assay conditions are 10 µM peptide, 0.018 mg/ml TMPRSS2 in assay buffer (50 mM Tris-HCl, pH 8, 150 mM NaCl, 0.01% Tween20).
After incubation at room temperature for 1 h, fluorescence was measured. […] Raw plate reads for each titration point were normalized relative to a positive control containing no enzyme (0% activity, full inhibition) and a negative control containing DMSO-only wells (100% activity, basal activity). Data normalization was performed using GraphPad Prism (GraphPad Software, San Diego, CA).
We employed the curve fitting algorithm available in the SciPy package (version 1.10.1)[61] to derive the Hill slope and the IC50 value, along with their corresponding error estimates.
To model the relationship between the pre-incubation time and the IC50, we use the following equation inspired by the Morse potential:3 ft,a,D,te=D⋅1−exp−a⋅t−te^2 where t is the time, a is the width of the well, D is the IC50 at infinite time (depth of the well) and te is the time at which the IC50 reaches its minimum. Again, we made use of SciPy’s curve fitting method to obtain parameters a, D and te, with their respective error estimates.

[4] = test system: pseudovirus bearing S protein of SARS-CoV-2 lineage B.1; assay: organism not typed; assay type: cell-based

T1 sequence (O15393 106-492 limits assumed): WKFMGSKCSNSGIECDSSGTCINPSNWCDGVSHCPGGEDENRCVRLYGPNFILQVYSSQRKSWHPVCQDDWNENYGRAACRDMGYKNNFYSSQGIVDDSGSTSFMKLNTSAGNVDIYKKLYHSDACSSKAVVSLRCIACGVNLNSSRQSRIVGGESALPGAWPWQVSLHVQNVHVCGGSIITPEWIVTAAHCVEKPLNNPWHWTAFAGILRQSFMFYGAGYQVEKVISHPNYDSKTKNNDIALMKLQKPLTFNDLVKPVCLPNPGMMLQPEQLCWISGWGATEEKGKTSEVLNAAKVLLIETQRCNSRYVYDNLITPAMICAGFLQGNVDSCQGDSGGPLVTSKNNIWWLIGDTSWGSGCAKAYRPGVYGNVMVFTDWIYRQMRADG

In the case of `CC(C)(C)NC(=O)N1CCN(C(=O)N2C(=O)C(CCCNC(=N)N)C2C(=O)O)CC1` (stereo not drawn) [BMS-262084], the “fold more potent than camostat (lower IC50)” value [1] is reported as ~2 fold, the “fold more potent than camostat (lower IC50)” value ([1]; SARS-CoV-2 lineages B.1, B.1.617.2, EG.5.1, BA.2.86, Calu-3 cells) is reported as 3–8 fold and the “cytotoxicity at concentrations used for preincubation” value [2] is reported as “noncytotoxic”. The “fold IC50 relative to camostat and nafamostat” value ([3]; after 48 h of pre-incubation) was 5 fold, the inhibition at 2.788 pM ([3]; pre-incubation 0) was -15.1% and the inhibition at 8.363 pM ([3]; pre-incubation 0) was -14.4%. The inhibition at 25.09 pM ([3]; pre-incubation 0) was -2.55%, the inhibition at 75.27 pM ([3]; pre-incubation 0) was 9.07% and the inhibition at 0.000225801 µM ([3]; pre-incubation 0) was 39.6%. It also gave an inhibition at 0.000677404 µM ([3]; pre-incubation 0) of 61.8%, an inhibition at 0.00203221 µM ([3]; pre-incubation 0) of 83.9% and an inhibition at 0.00609663 µM ([3]; pre-incubation 0) of 90.2%. The inhibition at 0.0182899 µM ([3]; pre-incubation 0) was 93.8%, the inhibition at 0.0548697 µM ([3]; pre-incubation 0) was 94.7% and the inhibition at 0.164609 µM ([3]; pre-incubation 0) was 96.7%. The inhibition at 0.493827 µM ([3]; pre-incubation 0) was 97.7%, the inhibition at 1.48148 µM ([3]; pre-incubation 0) was 98.2% and the inhibition at 4.44444 µM ([3]; pre-incubation 0) was 98%. It also gave an inhibition at 13.3333 µM ([3]; pre-incubation 0) of 101%, an inhibition at 40 µM ([3]; pre-incubation 0) of 100% and an inhibition at 2.788 pM ([3]; pre-incubation 1) of 9.6%. The inhibition at 8.363 pM ([3]; pre-incubation 1) was 9.83%, the inhibition at 25.09 pM ([3]; pre-incubation 1) was 32.2% and the inhibition at 75.27 pM ([3]; pre-incubation 1) was 60.8%. The inhibition at 0.000225801 µM ([3]; pre-incubation 1) was 90%, the inhibition at 0.000677404 µM ([3]; pre-incubation 1) was 96.9% and the inhibition at 0.00203221 µM ([3]; pre-incubation 1) was 97.1%. It also gave an inhibition at 0.00609663 µM ([3]; pre-incubation 1) of 97.8%, an inhibition at 0.0182899 µM ([3]; pre-incubation 1) of 97.1% and an inhibition at 0.0548697 µM ([3]; pre-incubation 1) of 97.8%. It also gave an inhibition at 0.164609 µM ([3]; pre-incubation 1) of 97.6%, an inhibition at 0.493827 µM ([3]; pre-incubation 1) of 98.2% and an inhibition at 1.48148 µM ([3]; pre-incubation 1) of 99.5%. The inhibition at 4.44444 µM ([3]; pre-incubation 1) was 100%, the inhibition at 13.3333 µM ([3]; pre-incubation 1) was 101% and the inhibition at 40 µM ([3]; pre-incubation 1) was 102%. The inhibition at 2.788 pM ([3]; pre-incubation 4) was 5.94%, the inhibition at 8.363 pM ([3]; pre-incubation 4) was 11.2% and the inhibition at 25.09 pM ([3]; pre-incubation 4) was 52.1%. For the same compound, the inhibition at 75.27 pM ([3]; pre-incubation 4) was 87.4%, the inhibition at 0.000225801 µM ([3]; pre-incubation 4) was 99.5% and the inhibition at 0.000677404 µM ([3]; pre-incubation 4) was 99.4%. For the same compound, the inhibition at 0.00203221 µM ([3]; pre-incubation 4) was 99.5%, the inhibition at 0.00609663 µM ([3]; pre-incubation 4) was 99.5% and the inhibition at 0.0182899 µM ([3]; pre-incubation 4) was 99.8%. For the same compound, the inhibition at 0.0548697 µM ([3]; pre-incubation 4) was 99.8%, the inhibition at 0.164609 µM ([3]; pre-incubation 4) was 100% and the inhibition at 0.493827 µM ([3]; pre-incubation 4) was 100%. For the same compound, the inhibition at 1.48148 µM ([3]; pre-incubation 4) was 101%, the inhibition at 4.44444 µM ([3]; pre-incubation 4) was 101% and the inhibition at 13.3333 µM ([3]; pre-incubation 4) was 103%. For the same compound, the inhibition at 40 µM ([3]; pre-incubation 4) was 102%, the inhibition at 2.788 pM ([3]; pre-incubation 8) was 25.7% and the inhibition at 8.363 pM ([3]; pre-incubation 8) was 29.7%. The inhibition at 25.09 pM ([3]; pre-incubation 8) was 84.9%, the inhibition at 75.27 pM ([3]; pre-incubation 8) was 109% and the inhibition at 0.000225801 µM ([3]; pre-incubation 8) was 113%. The inhibition at 0.000677404 µM ([3]; pre-incubation 8) was 114%, the inhibition at 0.00203221 µM ([3]; pre-incubation 8) was 114% and the inhibition at 0.00609663 µM ([3]; pre-incubation 8) was 116%. The inhibition at 0.0182899 µM ([3]; pre-incubation 8) was 115%, the inhibition at 0.0548697 µM ([3]; pre-incubation 8) was 116% and the inhibition at 0.164609 µM ([3]; pre-incubation 8) was 116%. For the same compound, the inhibition at 0.493827 µM ([3]; pre-incubation 8) was 116%, the inhibition at 1.48148 µM ([3]; pre-incubation 8) was 118% and the inhibition at 4.44444 µM ([3]; pre-incubation 8) was 119%. The inhibition at 13.3333 µM ([3]; pre-incubation 8) was 118%, the inhibition at 40 µM ([3]; pre-incubation 8) was 118% and the inhibition at 2.788 pM ([3]; pre-incubation 18) was 20.8%. For the same compound, the inhibition at 8.363 pM ([3]; pre-incubation 18) was 24.6%, the inhibition at 25.09 pM ([3]; pre-incubation 18) was 83.1% and the inhibition at 75.27 pM ([3]; pre-incubation 18) was 92.8%. For the same compound, the inhibition at 0.000225801 µM ([3]; pre-incubation 18) was 95.2%, the inhibition at 0.000677404 µM ([3]; pre-incubation 18) was 95.6% and the inhibition at 0.00203221 µM ([3]; pre-incubation 18) was 98.1%. It also gave an inhibition at 0.00609663 µM ([3]; pre-incubation 18) of 98.2%, an inhibition at 0.0182899 µM ([3]; pre-incubation 18) of 99.5% and an inhibition at 0.0548697 µM ([3]; pre-incubation 18) of 101%. For the same compound, the inhibition at 0.164609 µM ([3]; pre-incubation 18) was 102%, the inhibition at 0.493827 µM ([3]; pre-incubation 18) was 103% and the inhibition at 1.48148 µM ([3]; pre-incubation 18) was 102%. For the same compound, the inhibition at 4.44444 µM ([3]; pre-incubation 18) was 103%, the inhibition at 13.3333 µM ([3]; pre-incubation 18) was 104% and the inhibition at 40 µM ([3]; pre-incubation 18) was 105%. The inhibition at 2.788 pM ([3]; pre-incubation 24) was 45.1%, the inhibition at 8.363 pM ([3]; pre-incubation 24) was 50.8% and the inhibition at 25.09 pM ([3]; pre-incubation 24) was 105%. For the same compound, the inhibition at 75.27 pM ([3]; pre-incubation 24) was 110%, the inhibition at 0.000225801 µM ([3]; pre-incubation 24) was 114% and the inhibition at 0.000677404 µM ([3]; pre-incubation 24) was 114%. The inhibition at 0.00203221 µM ([3]; pre-incubation 24) was 114%, the inhibition at 0.00609663 µM ([3]; pre-incubation 24) was 115% and the inhibition at 0.0182899 µM ([3]; pre-incubation 24) was 116%. For the same compound, the inhibition at 0.0548697 µM ([3]; pre-incubation 24) was 115%, the inhibition at 0.164609 µM ([3]; pre-incubation 24) was 116% and the inhibition at 0.493827 µM ([3]; pre-incubation 24) was 116%. The inhibition at 1.48148 µM ([3]; pre-incubation 24) was 117%, the inhibition at 4.44444 µM ([3]; pre-incubation 24) was 117% and the inhibition at 13.3333 µM ([3]; pre-incubation 24) was 117%. For the same compound, the inhibition at 40 µM ([3]; pre-incubation 24) was 117%, the inhibition at 2.788 pM ([3]; pre-incubation 48) was 32.3% and the inhibition at 8.363 pM ([3]; pre-incubation 48) was 30.9%. The inhibition at 25.09 pM ([3]; pre-incubation 48) was 88.5%, the inhibition at 75.27 pM ([3]; pre-incubation 48) was 93.1% and the inhibition at 0.000225801 µM ([3]; pre-incubation 48) was 95.9%. It also gave an inhibition at 0.000677404 µM ([3]; pre-incubation 48) of 96.1%, an inhibition at 0.00203221 µM ([3]; pre-incubation 48) of 94.8% and an inhibition at 0.00609663 µM ([3]; pre-incubation 48) of 94.5%. For the same compound, the inhibition at 0.0182899 µM ([3]; pre-incubation 48) was 96.1%, the inhibition at 0.0548697 µM ([3]; pre-incubation 48) was 96.3% and the inhibition at 0.164609 µM ([3]; pre-incubation 48) was 97.7%. For the same compound, the inhibition at 0.493827 µM ([3]; pre-incubation 48) was 99.7%, the inhibition at 1.48148 µM ([3]; pre-incubation 48) was 101% and the inhibition at 4.44444 µM ([3]; pre-incubation 48) was 105%. For the same compound, the inhibition at 13.3333 µM ([3]; pre-incubation 48) was 109%, the inhibition at 40 µM ([3]; pre-incubation 48) was 112% and the inhibition at 0.00025 µM ([4]; Calu-3, B.1, concentration 0.25 nM) was 7.25%. The inhibition at 0.0025 µM ([4]; Calu-3, B.1, concentration 2.5 nM) was 11.1%, the inhibition at 0.025 µM ([4]; Calu-3, B.1, concentration 25 nM) was 52.1% and the inhibition at 0.25 µM ([4]; Calu-3, B.1, concentration 250 nM) was 86.2%. For the same compound, the inhibition at 2.5 µM ([4]; Calu-3, B.1, concentration 2500 nM) was 92.8%, the inhibition at 25 µM ([4]; Calu-3, B.1, concentration 25000 nM) was 93.3% and the IC50 ([4]; Calu-3 cells, read-out: IC50, pseudovirus cell entry B.1) was 0.0245 µM.

Reference: paper PMC12307812 (Nature Communications, 2025)
